According to US10668048B2, “Compounds for inhibiting bacterial growth via phosphatidylglycerol binding” (Wichita State University, priority 2016, dated 2020):
Values after ≈ are worked out from the molar mass of the structure shown.

Legend:
[1] = Liptin-PG binding in solution (ITC and/or 1H NMR titration); conditions: for binding constant for PG (Ka): in DMF solution, prior research
Experimental: The lipid binding ability of liptins 1-3 (FIG. 2A) have been investigated in solution using isothermal titration calorimetry (ITC) and/or ^1H NMR. Stoichiometry of binding was accomplished with Job plots using ^1H NMR. […] The use of organic solvents allowed the determination of binding motif using ^1H NMR.
Liptins 1b, 1e, 2c, 2d, 3a, 3c in DMF/5% CHCl3; 3e in 50% DMSO, 45% CHCl3, 5% CH3OH.
Liptins 1h and 1i 40% DMSO, 60% CHCl3, 3f in 20% DMSO, 80% CHCl3.

MRSA [2] = assay: MIC in cation-adjusted Muller Hinton culture; assay type: cell-based, Methicillin-resistant S. aureus; conditions: no growth after 24 hours
Experimental: (§1) MICs were determined in cation-adjusted Muller Hinton culture. Standard CLSI protocol for serial dilutions of liptin concentrations were used to determine the MIC, starting at 0.01 OD. Two different experimental cultures were used and each data point measured in triplicate.

[3] = tested on: Gram-positive and Gram-negative bacteria; assay: Growth curves in BHI culture with liptins 1h-k; assay type: cell-based; conditions: one inoculation
Experimental: Growth curves in BHI culture were generated (not shown) from liquid shake-flask cultures using absorbance measurements at 600 nm at different concentrations of liptins 1h-k. Uninoculated control flasks were used as blanks. Absorbance values of 0.1 OD unit was considered reasonable threshold for positive growth. The use of the nutrient-rich BHI culture allowed us to measure the effects of the small structural differences in liptins 1h-k on bacterial growth rates over long periods of time. […] Liptin exposure appears to stop bacterial growth, as evidenced by long lag phases, which increase with liptin concentration, and growth rates and maximum cell densities are decreased with liptin treatment.

Acinetobacter baumannii [4] = assay: MBC in cation-adjusted Muller Hinton culture; assay type: cell-based
Experimental: (§2) Minimum bactericidal concentration (MBC) were determined in cation-adjusted Muller Hinton culture. Standard CLSI protocol for serial dilutions of liptin concentrations were used to determine the MBC, starting at 0.01 OD. Two different experimental cultures were used and each data point measured in triplicate.

Escherichia coli [5] = assay: MBC in cation-adjusted Muller Hinton culture; assay type: cell-based
Experimental: as §2

Mycobacterium smegmatis [6] = assay: MBC in cation-adjusted Muller Hinton culture; assay type: cell-based
Experimental: as §2

Staphylococcus aureus [7] = assay: MBC in cation-adjusted Muller Hinton culture; assay type: cell-based
Experimental: as §2

Klebsiella pneumoniae [8] = assay: MBC in cation-adjusted Muller Hinton culture; assay type: cell-based
Experimental: as §2

Acinetobacter baumannii [9] = assay: MIC in cation-adjusted Muller Hinton culture; assay type: cell-based; conditions: no growth after 24 hours
Experimental: as §1

Escherichia coli [10] = assay: MIC in cation-adjusted Muller Hinton culture; assay type: cell-based; conditions: no growth after 24 hours
Experimental: as §1

Mycobacterium smegmatis [11] = assay: MIC in cation-adjusted Muller Hinton culture; assay type: cell-based; conditions: no growth after 24 hours
Experimental: as §1

Staphylococcus aureus [12] = assay: MIC in cation-adjusted Muller Hinton culture; assay type: cell-based; conditions: no growth after 24 hours
Experimental: as §1

Pseudomonas aeruginosa = assay: MIC in cation-adjusted Muller Hinton culture; assay type: cell-based; conditions: no growth after 24 hours
Experimental: as §1

Klebsiella pneumoniae [13] = assay: MIC in cation-adjusted Muller Hinton culture; assay type: cell-based; conditions: no growth after 24 hours
Experimental: as §1

Acinetobacter baumannii [14] = assay: Live-Dead stain (BacLight SYTO 9 / propidium iodide); assay type: cell-based; conditions: 5 μM, 90 minutes
Experimental: (§3) Molecular Probes BacLight© kits containing the SYTO 9 green-fluorescent dye and propidium iodide red-fluorescent dye were used to detect live or dead bacteria after ninety minute exposure of bacteria to liptins 1h or 1k. Bacteria in Muller Hinton culture were grown to an OD=0.3, were inoculated with liptins 1h and 1k and after ninety minutes stained with a mixture of the above dyes and affixed to a slide to be examined under a light microscope (40×) to determine the number of live and dead cells (green colored cells considered alive and red-colored cells considered dead). Data was calculated based upon an average of 5 different plate counts from each slide, and is based on a percent of total bacteria counted (live and dead). Control sample contains no liptin.

Escherichia coli [15] = assay: as above; assay type: cell-based; conditions: 10 μM, 90 minutes
Experimental: as §3

Mycobacterium smegmatis [16] = assay: as above; assay type: cell-based; conditions: 5 μM, 90 minutes
Experimental: as §3

Staphylococcus aureus [17] = assay: as above; assay type: cell-based; conditions: 5 μM, 90 minutes
Experimental: as §3

Klebsiella pneumoniae [18] = assay: as above; assay type: cell-based; conditions: 90 minutes
Experimental: as §3

[19] = tested on: human HeLa (vaginal carcinoma) cells; assay: LDH release cytotoxicity assay; assay type: cell-based; conditions: up to about 15 μM
Experimental: (§4) Toxicity Studies of human HeLa (vaginal carcinoma) and A549 (lung carcinoma epithelial) cells with Liptins 1h and 1k.
(§5) Eukaryote cell toxicity was determined using a Pierce LDH assay kit including the Chemical Compound-Mediated Cytotoxicity assay. This kit measures cell death by measuring the amount of lactate dehydrogenase released from cells. Lactate dehydrogenase (LDH) is a cytosolic enzyme present in many different types of cells. When the plasma membrane is damaged, LDH is released into cell culture media. The released LDH can be quantified by a coupled enzymatic reaction. First, LDH catalyzes the conversion of lactate to pyruvate via reduction of NAD+ to NADH. Second, diaphorase uses NADH to reduce a tetrazolium salt (INT) to a red formazan product. Therefore, the level of formazan formation is directly proportional to the amount of released LDH in the medium.

[20] = tested on: A549 (lung carcinoma epithelial) cells; assay: LDH release cytotoxicity assay; assay type: cell-based; conditions: near 15 μM
Experimental: as §4, §5

MRSA [21] = assay: MBC in cation-adjusted Muller Hinton culture; assay type: cell-based, Methicillin-resistant S. aureus
Experimental: as §2

E. coli = assay: BacLight Bacterial Membrane Potential kit, plasma membrane depolarization; assay type: cell-based; conditions: one half the liptins' MICs; concentration dependent
Experimental: (§6) The Molecular Probes BacLight® Bacterial Membrane Potential kit was used to detect changes in the polarization of the bacterial plasma membrane upon inoculation of bacteria with varying concentrations of liptins 1h or 1k. […] CCCP (carbonyl cyanide 3-chlorophenylhydrazone) is a proton ionophore that destroys plasma membrane potential and as such is a positive control. […] With plasma membrane depolarization the bacterial cell loses its ability to synthesize ATP and proteins. Additionally loss of membrane potential stops the ability for cell replication due to an inability for proper placement of divisome proteins in the plasma membrane. […] Thus, it is possible that the liptin's mechanism of action is a result of their deleterious effect on the functioning of electron transport proteins found in the plasma membrane.

S. aureus = assay: as above; assay type: cell-based; conditions: one half the liptins' MICs; concentration dependent
Experimental: as §6

MRSA [22] = assay: Live-Dead stain (BacLight SYTO 9 / propidium iodide); assay type: cell-based, Methicillin-resistant S. aureus; conditions: 90 minutes
Experimental: as §3

[23] = NMR titrations, DMF/5% CHCl3, 1:1 binding stoichiometry
[24] = ITC or NMR titrations, 40% DMSO, 60% CHCl3
[25] = ITC, DMF/5% CHCl3, 1:1 binding stoichiometry

Structure (SMILES): Cc1ccc2c(c1)CNCCCNCc1cc(C)ccc1OCCCCCO2 [Liptin 1b]
- Ka [1, 23]: 200 M⁻¹

Structure (SMILES): Cc1ccc2c(c1)CNCCCCNCc1cc(C)ccc1OCCCCO2 [Liptin 1e]
- Ka [1, 23]: 250 M⁻¹

Structure (SMILES): CCCCCCNC(=O)CCc1ccc2c(c1)CNCCCNCc1cc(CCC(=O)NCCCCCC)ccc1OCCCCCO2 [Liptin 1h]
- Ka [1, 24]: 4600 M⁻¹
- MIC (MRSA [2]): 3 µM (≈ 1.99 µg/mL)
- antibacterial activity from growth curves [3]: most potent
- MBC (Acinetobacter baumannii [4]): 8.5 µM (≈ 5.65 µg/mL)
- MBC (Escherichia coli [5]): 9 µM (≈ 5.98 µg/mL)
- MBC (Mycobacterium smegmatis [6]): 11.5 µM (≈ 7.65 µg/mL)
- MBC (Staphylococcus aureus [7]): 11 µM (≈ 7.31 µg/mL)
- MBC (Klebsiella pneumoniae [8]): 8.5 µM (≈ 5.65 µg/mL)
- MIC (Acinetobacter baumannii [9]): 2.5 µM (≈ 1.66 µg/mL)
- MIC (Escherichia coli [10]): 2 µM (≈ 1.33 µg/mL)
- MIC (Mycobacterium smegmatis [11]): 2.5 µM (≈ 1.66 µg/mL)
- MIC (Staphylococcus aureus [12]): 2.5 µM (≈ 1.66 µg/mL)
- MIC (Pseudomonas aeruginosa): 9 µM (≈ 5.98 µg/mL)
- MIC (Klebsiella pneumoniae [13]): 3 µM (≈ 1.99 µg/mL)
- Dead (Acinetobacter baumannii [14]): 88%
- Live (Acinetobacter baumannii [14]): 12%
- Dead (Escherichia coli [15]): 75%
- Live (Escherichia coli [15]): 35%
- Dead (Mycobacterium smegmatis [16]): 93%
- Live (Mycobacterium smegmatis [16]): 7%
- Dead (Staphylococcus aureus [17]): 39%
- Live (Staphylococcus aureus [17]): 61%
- Dead (Klebsiella pneumoniae [18]; 5 μM): 67%
- Live (Klebsiella pneumoniae [18]; 5 μM): 33%
- Dead (Klebsiella pneumoniae [18]; 10 μM): 100%
- Live (Klebsiella pneumoniae [18]; 10 μM): 0%
- cell toxicity (LDH release) [19]: large toxicity
- cytotoxicity (LDH release) [20]: over 25%
- MBC (MRSA [21]): 10 µM (≈ 6.65 µg/mL)
- plasma membrane depolarization (red/green fluorescence ratio) (E. coli): large membrane depolarization
- plasma membrane depolarization (red/green fluorescence ratio) (S. aureus): large membrane depolarization
- Dead (MRSA [22]; 5 μM): 72%
- Live (MRSA [22]; 5 μM): 28%
- Dead (MRSA [22]; 10 μM): 84%
- Live (MRSA [22]; 10 μM): 15%

Structure (SMILES): CCCCCCNC(=O)CCc1ccc2c(c1)CNCCCNCc1cc(CCC(=O)NCCCCCC)ccc1OCCCCO2 [Liptin 1i]
- Ka [1, 24]: 1500 M⁻¹
- MIC (MRSA [2]): 3.5 µM (≈ 2.28 µg/mL)
- MBC (Acinetobacter baumannii [4]): 11.5 µM (≈ 7.49 µg/mL)
- MBC (Escherichia coli [5]): 14 µM (≈ 9.11 µg/mL)
- MBC (Mycobacterium smegmatis [6]): 10.5 µM (≈ 6.83 µg/mL)
- MBC (Staphylococcus aureus [7]): 10.5 µM (≈ 6.83 µg/mL)
- MBC (Klebsiella pneumoniae [8]): 12 µM (≈ 7.81 µg/mL)
- MIC (Acinetobacter baumannii [9]): 3.5 µM (≈ 2.28 µg/mL)
- MIC (Escherichia coli [10]): 3 µM (≈ 1.95 µg/mL)
- MIC (Mycobacterium smegmatis [11]): 3 µM (≈ 1.95 µg/mL)
- MIC (Staphylococcus aureus [12]): 3 µM (≈ 1.95 µg/mL)
- MIC (Pseudomonas aeruginosa): 12 µM (≈ 7.81 µg/mL)
- MIC (Klebsiella pneumoniae [13]): 4 µM (≈ 2.6 µg/mL)
- MBC (MRSA [21]): 11.5 µM (≈ 7.49 µg/mL)

Structure (SMILES): CCCCCCNC(=O)CCc1ccc2c(c1)CNCCCCNCc1cc(CCC(=O)NCCCCCC)ccc1OCCCCO2 [Liptin 1j]
- MIC (MRSA [2]): 4.5 µM (≈ 2.99 µg/mL)
- MBC (Acinetobacter baumannii [4]): 12.5 µM (≈ 8.31 µg/mL)
- MBC (Escherichia coli [5]): 15 µM (≈ 9.97 µg/mL)
- MBC (Mycobacterium smegmatis [6]): 12 µM (≈ 7.98 µg/mL)
- MBC (Staphylococcus aureus [7]): 15.5 µM (≈ 10.3 µg/mL)
- MBC (Klebsiella pneumoniae [8]): 13 µM (≈ 8.64 µg/mL)
- MIC (Acinetobacter baumannii [9]): 4 µM (≈ 2.66 µg/mL)
- MIC (Escherichia coli [10]): 3.5 µM (≈ 2.33 µg/mL)
- MIC (Mycobacterium smegmatis [11]): 3.5 µM (≈ 2.33 µg/mL)
- MIC (Staphylococcus aureus [12]): 4 µM (≈ 2.66 µg/mL)
- MIC (Pseudomonas aeruginosa): 14 µM (≈ 9.31 µg/mL)
- MIC (Klebsiella pneumoniae [13]): 3.5 µM (≈ 2.33 µg/mL)
- MBC (MRSA [21]): 15 µM (≈ 9.97 µg/mL)

Structure (SMILES): O=C(NCc1cc(CCCO)cc2c1OCCCCOc1c(cc(CCCO)cc1CNC(=O)Nc1ccccc1)CCC2)Nc1ccccc1 [Liptin 2a]
- binding constant for PG (Ka) [1]: no significant binding

Structure (SMILES): O=C(NCc1cc(CCCO)cc2c1OCCCOc1c(cc(CCCO)cc1CNC(=O)Nc1ccccc1)CCC2)Nc1ccccc1 [Liptin 2b]
- binding constant for PG (Ka) [1]: no significant binding

Structure (SMILES): O=C(NCCOCc1ccccc1)Nc1ccccc1-c1c2nc(c(-c3ccccc3NC(=O)NCCOCc3ccccc3)c3ccc([nH]3)c(-c3ccccc3NC(=O)NCCOCc3ccccc3)c3nc(c(-c4ccccc4NC(=O)NCCOCc4ccccc4)c4ccc1[nH]4)C=C3)C=C2 [Liptin 3a]
- Ka [1, 25]: 2100 M⁻¹

Structure (SMILES): CCOCCOCCOCCNC(=O)Nc1ccccc1-c1c2nc(c(-c3ccccc3NC(=O)NCCOCCOCCOCC)c3ccc([nH]3)c(-c3ccccc3NC(=O)NCCOCCOCCOCC)c3nc(c(-c4ccccc4NC(=O)NCCOCCOCCOCC)c4ccc1[nH]4)C=C3)C=C2 [Liptin 3c]
- Ka [1, 25]: 3700 M⁻¹

Structure (SMILES): O=C(CNCc1ccccc1)Nc1ccccc1-c1c2nc(c(-c3ccccc3NC(=O)CNCc3ccccc3)c3ccc([nH]3)c(-c3ccccc3NC(=O)CNCc3ccccc3)c3nc(c(-c4ccccc4NC(=O)CNCc4ccccc4)c4ccc1[nH]4)C=C3)C=C2 [Liptin 3f]
- Ka ([1]; NMR titrations, 20% DMSO, 80% CHCl3): 2800 M⁻¹
